Where two headings read alike, the source gives them in different places. Marks after values point to notes of the source that are not given here. Each block holds one compound with its values, some of them ahead of it.
Columns and labels:
in vitro = settings: rhesus monkey, pH 7.4
From the text: The luciferase-transfected human breast cancer cell line (MDA231-BrM2-831) was purchased from Memorial Sloan Kettering Cancer Center (New York, NY). […] Deuterated olaparib (olaparib-d8) was purchased from Alsachim (Illkirch Graffenstaden, France). Cynomolgus macaque brain tissue (lot #CYN252598), rhesus macaque brain tissue (lot #RHS24901), rhesus macaque plasma (lot #RHS24900), CD1 mouse brain tissue (lot #MSE343926), and CD1 mouse plasma (lot #MSE343926) used in the protein-binding assays were obtained from BioIVT (Westbury, NY).
Brain (diluted 1:4 [5×] in PBS) or plasma (undiluted) were spiked with each test compound and applied to each matrix. Aliquots of each mixture were added to the donor wells of a rapid equilibrium dialysis plate in triplicate, and blank PBS was added to each receiver well, at volumes recommended by the manufacturer. Plates were incubated with shaking at 200 rpm for 4 h at 37 °C. At the end of incubation, samples were collected from each donor and receiver well. Samples were matrix-matched with the addition of an equivalent volume of blank matrix to each receiver sample and blank PBS to each donor sample. Additional samples were collected from each incubation mixture at the beginning (T = 0 min) and end (T = 240 min) of incubation for determination of stability, and matrix-matched with PBS as described above. The resultant samples were extracted by protein precipitation with acetonitrile containing an analytical internal standard, centrifuged, and analyzed by LC-MS/MS.

in vivo = experiment: in vivo
Experimental: Female C57BL/6 mice were inoculated intracranially on the right side of the brain in the right frontal lobe with mouse glioblastoma (GL261) tumor cells (≈ 2 × 10^5) in 3 µL of phosphate-buffered saline for the tumor development. Mice were observed daily for clinical signs, and any mouse meeting predefined criteria for moribund status was euthanized. Criteria for moribund sacrifice included: ≥ 20% body weight loss or severe neurological symptoms (e.g., prostration, paralysis, seizures, hemorrhage).
Mice were euthanized by CO2 asphyxiation.
Brain tissue was weighed in polypropylene tubes, then PBS was added to the tissue sample before homogenization (1:4 wt: vol).
The LC-MS/MS system included an API-6500 triple quadrupole mass spectrometer (Sciex). Data were acquired and processed using Analyst® 1.7.2 software (Sciex). An Acquity UHPLC BEH C18 analytical column (1.7-µm, 2.1 × 50 mm; Waters) was applied in sample analysis.
For olaparib, the LLQ was 5.00 ng/mL, and the HLQ was 1000 ng/mL.
First, the brain tissue partition coefficient Kp, brain was calculated using Eq. (1).
Where Css, brain is the mean steady-state total drug concentration in brain tissue, and Css, plasma is the mean steady-state total drug concentration in plasma (both measured by LC-MS/MS). […] Finally, Kp, uu, brain was calculated using Eq. (2).2 [drawing 2]

[1] = MALDI MSI of brain sections, mouse model of brain metastasis (MDA231-BrM2-831); assay type: in vivo, NCr nude mice
From the text: A luciferase-transfected human breast adenocarcinoma cell line (MDA 231-BRM2-831) was used to generate a metastatic brain tumor model in female athymic nude mice. […] NCr nude mice (strain: CrTac: NCr-Foxn1^nu; female; 5-7 weeks old; Taconic Biosciences (Germantown, NY)) were used for these studies. A power analysis was completed by a statistician to determine the appropriate sample sizes for each group to measure a statistically significant. […] Control mice (n = 10) underwent a sham IC procedure (needle insertion into the ventricle without cell injection. All mice were monitored for tumor development by bioluminescence imaging (BLI) approximately once weekly for ~ 45 days, beginning 1 h after cell injection. In vivo BLI was performed at ~ 10 min post-luciferin injection (corresponding to the peak bioluminescent signal) using an IVIS Spectrum-CT system (PerkinElmer, Waltham, MA). Imaging parameters were set to automatic exposure in the Living Image software, while the binning (8) and aperture (open f-stop) remained at the default settings for all BLI acquisitions. The imaging frequency was increased to twice weekly for mice that developed brain metastases (BMs) as indicated by increased bioluminescence in the cranial region. […] The exact tumor size was not measured as an endpoint of this study. […] Two hours after the final dose, mice were euthanized by CO2 asphyxiation. At necropsy, a terminal blood sample was collected via cardia puncture, and the brains were harvested and snap-frozen by floating on liquid nitrogen. […] From each plane, serial tissue sections were collected for MALDI MSI and for H&E staining, and immunohistochemistry (IHC) staining. Tissue trimmings from between each plane were collected, homogenized, and submitted for bioanalysis in addition to the terminal plasma samples. For the mouse metastases study, tissue sections were collected from five horizontal tissue planes starting from roughly 1 mm from the top of the tissue, and each subsequent tissue plane was separated by roughly 1 mm. […] For MALDI MSI analysis, sections were thaw-mounted onto indium tin oxide-coated slides (Delta Technologies, Ltd, Loveland, CO). For H&E and IHC analyses, tissue sections were collected onto superfrost glass slides (Fisher Scientific, Waltham, MA). Brain tissue trimmings from between each of the horizontal planes were pooled and collected into a pre-weighed vial for homogenization and LC-MS/MS bioanalysis (described in detail later). […] Arraymold, Ogden, UT). […] DMSO: […] […] Ion images were loaded into […] […] Statistical significance was set at p < 0.05.

[2] = female, C57BL/6, mouse, brain tumor, oral
[3] = female, C57BL/6, mouse, contralateral normal brain, oral
[4] = female, C57BL/6, mouse, contralateral normal brain/plasma, oral
[5] = BM mice (niraparib n = 4, olaparib n = 3), oral once daily 5 days, niraparib 35 mg/kg or olaparib 50 mg/kg, 2 h after final dose, LOD 70 ng/g niraparib, 170 ng/g olaparib
[6] = female, C57BL/6, mouse, normal brain, oral, 35 mg/kg

Structure (SMILES): O=C(c1cc(Cc2n[nH]c(=O)c3ccccc23)ccc1F)N1CCN(C(=O)C2CC2)CC1 [Olaparib]
fraction unbound at 4 h, 1 µM (in vitro; brain homogenate): 0.194
fraction unbound at 4 h, 1 µM (in vitro; plasma): 0.301
Kp, brain (in vivo; 2 h since dose, normal brain): 0.031
Brain tumor, mean (SD) (in vivo; 24 h since dose, n = 9, olaparib: only three of nine animals had detectable drug levels): 78 (92)^d ng/g
Kp at 2 h (in vivo; [2]): 0.126
concentration at 24 h (in vivo; [3]): 8 ng/g
Kp at 2 h (in vivo; [4]): 0.031
Kp uu at 2 h (in vivo; female, C57BL/6, mouse, in vivo): 0.02
MALDI MSI Brain sections, mean (SD) [1, 5]: < LOD
MALDI MSI Brain tumors, mean (SD) [1, 5]: < LOD
MALDI MSI Brain sections, mean (SD) ([1]; No BM mice (n = 3), oral once daily 5 days, niraparib 35 mg/kg or olaparib 50 mg/kg, 2 h after final dose, LOD 70 ng/g niraparib, 170 ng/g olaparib): < LOD

fraction unbound at 4 h, 1 µM (in vitro; plasma (undiluted)): 0.366
Kp at 2 h (in vivo; [2]): 0.893
concentration at 24 h (in vivo; [2]): 436 ng/g
Kp at 24 h (in vivo; female, C57BL/6, mouse, brain tumor, oral, 35 mg/kg): 0.465
concentration at 24 h (in vivo; [3]): 171 ng/g
Kp uu at 2 h (in vivo; [4]): 0.011
Kp at 2 h (in vivo; female, C57BL/6, mouse, normal brain, oral): 0.08
Kp at 24 h (in vivo; [6]): 0.182
Kp uu at 24 h (in vivo; [6]): 0.025
concentration at 2 h ([1]; female, NCr nude (CrTac:NCr-Foxn1nu), mouse, brain (sections), oral, 35 mg/kg, read-out: MALDI MSI Brain sections, mean (SD)): 519 ng/g
concentration at 2 h ([1]; female, NCr nude (CrTac:NCr-Foxn1nu), mouse, brain metastasis tumor tissue, oral, 35 mg/kg, all tumor-containing sections (n = 42) in all BM animals (n = 4), niraparib 35 mg/kg, read-out: MALDI MSI mean localized tumor concentration): ~1700 ng/g
concentration at 2 h ([1]; female, NCr nude (CrTac:NCr-Foxn1nu), mouse, brain tumor, oral, 35 mg/kg, read-out: MALDI MSI Brain tumors, mean (SD)): 2400 ng/g
concentration at 2 h ([1]; female, NCr nude (CrTac:NCr-Foxn1nu), mouse, brain ventricles, oral, 35 mg/kg, all ventricle-containing sections (n = 48) in all BM animals, niraparib 35 mg/kg, read-out: MALDI MSI mean concentration in the ventricles): ~1860 ng/g
concentration at 2 h ([1]; female, NCr nude (CrTac:NCr-Foxn1nu), mouse, brain, oral, 35 mg/kg, read-out: MALDI MSI Brain sections, mean (SD)): 487 ng/g
Kp at 2 h ([1]; female, NCr nude (CrTac:NCr-Foxn1nu), mouse, oral, 35 mg/kg, BM mice, mean brain tumor ROI total concentration by MALDI MSI versus terminal plasma total concentration): 0.945
concentration at 2 h ([1]; female, NCr nude (CrTac:NCr-Foxn1nu), mouse, whole brain (sections), oral, 35 mg/kg, Brain Metastases, Mouse 1, Fig. 2B, read-out: MALDI MSI Mean Conc., whole brain, individual mouse): 430 ng/g
concentration at 2 h ([1]; female, NCr nude (CrTac:NCr-Foxn1nu), mouse, whole brain (sections), oral, 35 mg/kg, Brain Metastases, Mouse 2, Fig. 2B, read-out: MALDI MSI Mean Conc., whole brain, individual mouse): 640 ng/g
concentration at 2 h ([1]; female, NCr nude (CrTac:NCr-Foxn1nu), mouse, whole brain (sections), oral, 35 mg/kg, Brain Metastases, Mouse 3, Fig. 2B, read-out: MALDI MSI Mean Conc., whole brain, individual mouse): 540 ng/g
concentration at 2 h ([1]; female, NCr nude (CrTac:NCr-Foxn1nu), mouse, whole brain (sections), oral, 35 mg/kg, Brain Metastases, Mouse 4, Fig. 2B, read-out: MALDI MSI Mean Conc., whole brain, individual mouse): 340 ng/g
concentration at 2 h ([1]; female, NCr nude (CrTac:NCr-Foxn1nu), mouse, whole brain (sections), oral, 35 mg/kg, No Brain Metastases, Mouse 8, Fig. 2B, read-out: MALDI MSI Mean Conc., whole brain, individual mouse): 400 ng/g
concentration at 2 h ([1]; female, NCr nude (CrTac:NCr-Foxn1nu), mouse, whole brain (sections), oral, 35 mg/kg, No Brain Metastases, Mouse 9, Fig. 2B, read-out: MALDI MSI Mean Conc., whole brain, individual mouse): 560 ng/g
concentration at 2 h ([1]; female, NCr nude (CrTac:NCr-Foxn1nu), mouse, whole brain (sections), oral, 35 mg/kg, No Brain Metastases, Mouse 10, Fig. 2B, read-out: MALDI MSI Mean Conc., whole brain, individual mouse): 600 ng/g
Structure (SMILES): NC(=O)c1cccc2cn(-c3ccc([C@@H]4CCCNC4)cc3)nc12 [Niraparib]
